Columns and labels:
TLR9 = target: T1, TLR9 (Homo sapiens, UniProt Q9NR96); assay: Human PBMC cell-based assay; design: These cells express TLR7, TLR8, or TLR9, and therefore are natural responders to respective ligand stimulation; endogenous in cells; host or cells: human PBMC from healthy donor whole blood; settings: CpG ODN 2216 at 1 μM, read-out: hPBMC/TLR9 IC50
T1 sequence (Q9NR96 26-1032): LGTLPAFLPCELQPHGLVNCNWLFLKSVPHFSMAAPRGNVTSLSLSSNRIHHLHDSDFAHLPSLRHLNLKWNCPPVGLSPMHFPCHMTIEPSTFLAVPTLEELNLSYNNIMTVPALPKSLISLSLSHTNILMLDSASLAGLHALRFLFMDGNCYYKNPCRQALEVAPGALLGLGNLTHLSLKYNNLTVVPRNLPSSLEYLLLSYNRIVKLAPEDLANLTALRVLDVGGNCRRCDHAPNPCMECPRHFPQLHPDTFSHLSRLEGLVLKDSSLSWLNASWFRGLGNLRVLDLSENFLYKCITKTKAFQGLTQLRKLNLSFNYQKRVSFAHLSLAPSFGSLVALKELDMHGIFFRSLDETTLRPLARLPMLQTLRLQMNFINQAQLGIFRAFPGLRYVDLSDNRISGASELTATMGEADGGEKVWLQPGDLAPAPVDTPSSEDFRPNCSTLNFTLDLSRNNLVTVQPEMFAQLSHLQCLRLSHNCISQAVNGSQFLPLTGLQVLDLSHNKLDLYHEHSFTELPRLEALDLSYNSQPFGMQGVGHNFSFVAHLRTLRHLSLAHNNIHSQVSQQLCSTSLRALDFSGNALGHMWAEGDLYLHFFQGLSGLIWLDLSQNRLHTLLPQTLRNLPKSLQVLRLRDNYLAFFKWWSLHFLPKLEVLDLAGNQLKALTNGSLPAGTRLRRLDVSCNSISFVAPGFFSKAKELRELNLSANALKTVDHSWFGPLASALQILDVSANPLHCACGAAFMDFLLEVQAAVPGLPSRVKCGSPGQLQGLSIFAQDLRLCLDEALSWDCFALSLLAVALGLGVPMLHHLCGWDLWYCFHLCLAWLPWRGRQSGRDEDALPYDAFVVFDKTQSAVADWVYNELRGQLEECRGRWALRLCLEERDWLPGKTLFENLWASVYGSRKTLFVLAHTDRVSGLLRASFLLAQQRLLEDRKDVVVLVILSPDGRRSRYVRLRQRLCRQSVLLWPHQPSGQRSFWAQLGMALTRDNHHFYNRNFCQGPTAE
From the text: Unlike the HEK reporter cell lines, human peripheral blood mononuclear cell (PBMC) represents primary human immune cells in blood mainly consisting of lymphocytes, monocytes, and dendritic cells. These cells express TLR7, TLR8, or TLR9, and therefore are natural responders to respective ligand stimulation. Upon activation of these TLRs, PBMCs secrete similar cytokines and chemokines in vitro and in vivo, and therefore the in vitro potency of a TLR7/8/9 antagonist in human PBMC is readily translatable to its pharmacodynamics response in vivo.
Human peripheral blood mononuclear cells (PBMC) were isolated from freshly-drawn lithium-heparinized (Lithium Heparin Plus blood Collection tube, BD Vacutainer®) healthy donor whole blood by density gradient (Ficoll-Paque™ PLUS, GE Healthcare life Sciences). Briefly, […] was diluted with 25 mL PBS (without Ca^2+, Mg^2+) in a 50 mL conical tube with porous barrier (Leucosep tube, Greiner bio-one), where 15.5 mL Ficoll-Paque was under laid after spinning. Tubes were centrifuged for 20 minutes at 800×g (1946 rpm) with the brake in the off position, and PBMC were collected from the buffy coat. Cells were then washed twice in PBS, and red blood cells were lysed by suspension in 2 mL (Red Blood Cell Lysis Buffer, Alfa Aesar) for 5-10 minutes at room temperature. After a final wash in PBS, PBMC were resuspended at a final concentration of 2×10^6 cells/mL in RPMI-1640 media with GlutaMAX™ (Gibco) supplemented with 10% Fetal Bovine Serum (Sigma) and plated at 150 μL/well (3×10^5 cells/well) in tissue culture treated round bottom 96-well plates (Corning Incorporated). Antagonist compounds (compounds of this invention) solubilized and serial diluted in 100% DMSO were added in duplicate to cells to yield a final concentration of 1% DMSO (v/v). PBMC were incubated with antagonist compounds for 30 minutes at 37° C., 5% CO2 before adding various TLR agonist reagents in 48 μL complete media per well as follows (final concentrations indicated): CpG ODN 2216 (InvivoGen) at 1 μM for TLR9, ORN 06/LyoVec (InvivoGen) at […] for TLR8 and R848 (InvivoGen) at 1 μg/mL for TLR7 and TLR8. PBMC were incubated overnight at 37° C. with 5% C02. Cell culture supernatants were collected, and levels of various human cytokines were assessed by Luminex assay (ProcartaPlex™ Multiplex Immunoassay, Invitrogen) or ELISA procedure according to the manufacturer's recommended protocol (eBioscience, ThermoFisher Scientific). Viability of the cells was also checked with Cell Viability Assay (CellTiter Glo® Luminescent Cell Viability Assay, Promega).

hERG K+ channel = target: T2, hERG K+ channel (Homo sapiens, UniProt Q12809); assay: hERG channel inhibition assay (patch-clamp, CHO-hERG cells); format: cell-based; settings: for IC50 / IC20: CHO-hERG cells, whole-cell patch-clamp; for IC20: human, CHO cells stably expressing hERG; for hERG IC20/TLR7 IC50 / hERG IC20/TLR8 IC50 / hERG IC20/TLR9 IC50: safety ratio
T2 construct: expressed in transfected cells; host or cells: CHO (Chinese hamster ovary)
T2 sequence (Q12809 whole entry): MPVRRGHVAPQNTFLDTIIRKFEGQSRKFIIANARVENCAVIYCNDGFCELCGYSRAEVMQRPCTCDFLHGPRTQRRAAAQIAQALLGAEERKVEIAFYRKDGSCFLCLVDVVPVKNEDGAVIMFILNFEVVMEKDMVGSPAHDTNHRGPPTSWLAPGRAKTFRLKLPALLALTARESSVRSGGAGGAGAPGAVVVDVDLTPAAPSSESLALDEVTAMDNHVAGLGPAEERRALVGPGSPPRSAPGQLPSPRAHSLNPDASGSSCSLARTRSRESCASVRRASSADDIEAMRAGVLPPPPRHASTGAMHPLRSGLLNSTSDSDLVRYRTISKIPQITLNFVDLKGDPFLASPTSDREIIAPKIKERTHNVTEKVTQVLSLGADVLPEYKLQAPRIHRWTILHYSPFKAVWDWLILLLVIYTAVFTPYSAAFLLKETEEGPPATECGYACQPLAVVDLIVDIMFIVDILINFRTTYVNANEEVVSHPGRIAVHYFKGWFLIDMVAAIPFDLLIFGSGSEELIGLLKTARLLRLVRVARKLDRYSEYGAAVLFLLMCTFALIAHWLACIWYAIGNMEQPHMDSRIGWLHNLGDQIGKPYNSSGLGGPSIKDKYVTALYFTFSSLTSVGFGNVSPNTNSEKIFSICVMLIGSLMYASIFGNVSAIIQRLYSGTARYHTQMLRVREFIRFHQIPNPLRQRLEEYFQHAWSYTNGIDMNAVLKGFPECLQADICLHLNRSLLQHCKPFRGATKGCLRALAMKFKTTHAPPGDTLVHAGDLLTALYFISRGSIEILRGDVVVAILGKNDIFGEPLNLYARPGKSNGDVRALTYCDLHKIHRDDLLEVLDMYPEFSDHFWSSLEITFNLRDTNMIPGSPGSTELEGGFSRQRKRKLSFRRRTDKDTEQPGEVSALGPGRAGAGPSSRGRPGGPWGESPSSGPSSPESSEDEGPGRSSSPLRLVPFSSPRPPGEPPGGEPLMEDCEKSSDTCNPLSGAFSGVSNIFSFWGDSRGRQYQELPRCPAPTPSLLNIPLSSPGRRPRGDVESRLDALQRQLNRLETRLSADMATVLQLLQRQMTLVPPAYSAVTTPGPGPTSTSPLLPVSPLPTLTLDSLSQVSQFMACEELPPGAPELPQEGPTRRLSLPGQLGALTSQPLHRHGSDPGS
Method: The hERG K^+ channels were cloned in humans and stably expressed in a CHO (Chinese hamster ovary) cell line. CHOhERG cells were used for patch-clamp (voltage-clamp, whole-cell) experiments. Cells were stimulated by a voltage pattern to activate hERG channels and conduct IKhERG Currents (rapid delayed outward rectifier potassium current of the hERG channel). After the cells were stabilized for a few minutes, the amplitude and kinetics of IKhERG were recorded at a stimulation frequency of 0.1 Hz (6 bpm). Thereafter, the test compound was added to the preparation at increasing concentrations. For each concentration, an attempt was made to reach a steady-state effect, usually, this was achieved within 3-10 min at which time the next highest concentration was applied. The amplitude and kinetics of IKhERG are recorded in each concentration of the drug which were compared to the control values (taken as 100%). (references: Redfe W S, Carlsson L, Davis A S, Lynch W G, MacKenzie I, Palethorpe S, Siegl P K, Strang I, Sullivan A T, Wallis R, Camm A J, Hammond T G. 2003; Relationships between preclinical cardiac electrophysiology, clinical QT interval prolongation and torsade de pointes for a broad range of drugs: evidence for a provisional safety margin in drug development. Cardiovasc. Res. 58:32-45, Sanguinetti M C, Tristani-Firouzi M. 2006; hERG potassium channels and cardiac arrhythmia. Nature 440:463-469, Webster R, Leishman D, Walker D. 2002; Towards a drug concentration effect relationship for QT prolongation and torsades de pointes. Curr. Opin. Drug Discov. Devel. 5:116-26).

| SMILES | IC50 (TLR9) [µM] | IC50 (hERG K+ channel) [µM] | IC20 (hERG K+ channel) [µM] | hERG IC20/TLR7 IC50 (hERG K+ channel) | hERG IC20/TLR8 IC50 (hERG K+ channel) | hERG IC20/TLR9 IC50 (hERG K+ channel) |
| --- | --- | --- | --- | --- | --- | --- |
| CO[C@@H]1CN(c2cnc([C@@H]3CCN(c4cc(C)nc5c4cnn5C)C[C@H]3C)c(C)c2)C[C@H]1N [Example 26, (3R,4R)-1-[6-[(3S,4R)-1-(1,6-dimethylpyrazolo[3,4-b]pyridin-4-yl)-3-methyl-4-piperidyl]-5-methyl-3-pyridyl]-4-methoxy-pyrrolidin-3-amine] | 0.33 | > 20 | > 10 | >833.3 | >714.3 | >91.7 |
| Cc1cc(N2CC[C@@H](c3ncc(N4CCOC[C@@H](N)C4)cc3C)[C@H](C)C2)c2cnn(C)c2n1 [Example 28, (6S)-4-[6-[(3S,4R)-1-(1,6-dimethylpyrazolo[3,4-b]pyridin-4-yl)-3-methyl-4-piperidyl]-5-methyl-3-pyridyl]-1,4-oxazepan-6-amine] | 0.52 | > 20 | 6.4 | 914.3 | 3200.0 | 50.8 |
| Cc1cc(N2CC[C@@H](c3ncc(N4C[C@H]5NCCO[C@@H]5C4)cc3C)[C@H](C)C2)c2cnn(C)c2n1 [Example 33, (4aR,7aR)-6-[6-[(3S,4R)-1-(1,6-dimethylpyrazolo[3,4-b]pyridin-4-yl)-3-methyl-4-piperidyl]-5-methyl-3-pyridyl]-3,4,4a,5,7,7a-hexahydro-2H-pyrrolo[3,4-b][1,4]oxazine] | 0.146 | > 10 | 4.1 | 372.7 | 1366.7 | 51.9 |
| Cc1cc(N2CC[C@H](c3ccc(N4CC(C)(N)C4)cn3)[C@@H](C)C2)c2cnn(C)c2n1 [Example 43, 1-[6-[(3R,4S)-1-(1,6-dimethylpyrazolo[3,4-b]pyridin-4-yl)-3-methyl-4-piperidyl]-3-pyridyl]-3-methyl-azetidin-3-amine] | 0.47 | > 20 | > 10 | >625.0 | >1666.7 | >49.3 |

More lines, main results first:

| IC50 (TLR9) [µM] | SMILES | IC50 (hERG K+ channel) [µM] | IC20 (hERG K+ channel) [µM] | hERG IC20/TLR7 IC50 (hERG K+ channel) | hERG IC20/TLR8 IC50 (hERG K+ channel) | hERG IC20/TLR9 IC50 (hERG K+ channel) |
| --- | --- | --- | --- | --- | --- | --- |
| 0.71 | COC[C@H]1CN(c2cnc([C@@H]3CCN(c4cc(C)nc5c4cnn5C)C[C@H]3C)c(C)c2)CCN1 [Example 29, 4-[(3S,4R)-4-[5-[(3R)-3-(methoxymethyl)piperazin-1-yl]-3-methyl-2-pyridyl]-3-methyl-1-piperidyl]-1,6-dimethyl-pyrazolo[3,4-b]pyridine] | > 10 | 4.4 | 880.0 | 550.0 | 18.5 |
| 0.32 | Cc1cc(N2CC[C@@H](c3ncc(N4CC(C)(N)C4)cc3C)[C@H](C)C2)c2cnn(C)c2n1 [Example 32, 1-[6-[(3S,4R)-1-(1,6-dimethylpyrazolo[3,4-b]pyridin-4-yl)-3-methyl-4-piperidyl]-5-methyl-3-pyridyl]-3-methyl-azetidin-3-amine] | > 10 | 4.4 | 550.0 | 293.3 | 23.7 |
| 0.87 | Cc1cc(N2CC[C@H](c3ccc(N4CCNCC4)cn3)[C@@H](C)C2)c2cnn(C)c2n1 [Example 35, 1,6-dimethyl-4-[(3R,4S)-3-methyl-4-(5-piperazin-1-yl-2-pyridyl)-1-piperidyl]pyrazolo[3,4-b]pyridine] | > 10 | 4.4 | 733.3 | 488.9 | 27.8 |
| 0.54 | Cc1cc(N2CC[C@H](c3ccc(N4CCOC[C@@H](N)C4)cn3)[C@@H](C)C2)c2cnn(C)c2n1 [Example 40, (6S)-4-[6-[(3R,4S)-1-(1,6-dimethylpyrazolo[3,4-b]pyridin-4-yl)-3-methyl-4-piperidyl]-3-pyridyl]-1,4-oxazepan-6-amine] | > 20 | 5.9 | 655.6 | 842.9 | 34.1 |

Reference: patent publication US20240360126A1, “PYRAZOLO[3,4-B]PYRIDINE COMPOUNDS FOR THE TREATMENT OF AUTOIMMUNE DISEASE” (Hoffmann-La Roche Inc., priority 2021, published 2024)
